Reference: patent publication US20250215029A1 (Recludix Pharma, Inc., priority 2022, published 2025)

Columns and labels:
[1] = biological target: T1, Recombinant STAT6 protein (STAT6 (W123-T658)) (Homo sapiens, UniProt P42226); assay: STAT6 Fluorescence Polarization (FP) Assay; type: binding; settings: STAT6 (W123-T658) 250 nM, probe 5-FAM-Ap[…]-NH2 2 nM, 45-minute incubation; read-out: STAT6 (FP assay IC50 class)
T1 construct: Recombinant STAT6 protein (STAT6 (W123-T658))
T1 sequence (P42226 123-658): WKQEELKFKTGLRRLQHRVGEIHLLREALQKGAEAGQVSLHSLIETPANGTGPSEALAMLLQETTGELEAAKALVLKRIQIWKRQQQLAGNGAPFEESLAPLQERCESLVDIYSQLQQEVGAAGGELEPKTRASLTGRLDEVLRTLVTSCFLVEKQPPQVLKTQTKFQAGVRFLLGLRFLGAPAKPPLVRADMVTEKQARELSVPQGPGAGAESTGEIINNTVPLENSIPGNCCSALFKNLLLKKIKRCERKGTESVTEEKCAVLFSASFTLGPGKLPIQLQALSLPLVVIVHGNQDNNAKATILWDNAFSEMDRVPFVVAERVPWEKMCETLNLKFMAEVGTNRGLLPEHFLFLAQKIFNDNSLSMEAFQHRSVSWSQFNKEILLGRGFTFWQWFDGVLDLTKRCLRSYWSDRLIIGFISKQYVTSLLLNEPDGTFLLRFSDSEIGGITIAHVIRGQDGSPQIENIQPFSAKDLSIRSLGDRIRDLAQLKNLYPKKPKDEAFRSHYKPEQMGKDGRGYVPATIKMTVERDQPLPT
In short: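 Probe displacement format: serially diluted compounds incubated 45 min at room temperature with 2 nM fluorescent phosphopeptide and 250 nM STAT6 (W123-T658) in pH 7.4 HEPES buffer, 1% DMSO final. Polarization signal plotted against log concentration, IC50 fitted by nonlinear regression.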

[2] = biological target: T2, Recombinant STAT3 protein (STAT3 (G127-I722)) (Homo sapiens, UniProt P40763); assay: STAT3 Fluorescence Polarization (FP) Assay; type: binding; settings: STAT3 (G127-I722) 25 nM, probe 5-FAM-GpYLPQTV-NH2 2 nM, 45-minute incubation; read-out: STAT3 (FP assay IC50 class)
T2 construct: Recombinant STAT3 protein (STAT3 (G127-I722))
In short: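 Compounds in serial dilution receive a premix of STAT3 (G127-I722, 25 nM) and fluorescent phosphotyrosine peptide 5-FAM-GpYLPQTV-NH2 (2 nM) at pH 7.4. After 45 min at room temperature, FP is measured and IC50 derived by nonlinear regression.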

T2 sequence (P40763 127-722): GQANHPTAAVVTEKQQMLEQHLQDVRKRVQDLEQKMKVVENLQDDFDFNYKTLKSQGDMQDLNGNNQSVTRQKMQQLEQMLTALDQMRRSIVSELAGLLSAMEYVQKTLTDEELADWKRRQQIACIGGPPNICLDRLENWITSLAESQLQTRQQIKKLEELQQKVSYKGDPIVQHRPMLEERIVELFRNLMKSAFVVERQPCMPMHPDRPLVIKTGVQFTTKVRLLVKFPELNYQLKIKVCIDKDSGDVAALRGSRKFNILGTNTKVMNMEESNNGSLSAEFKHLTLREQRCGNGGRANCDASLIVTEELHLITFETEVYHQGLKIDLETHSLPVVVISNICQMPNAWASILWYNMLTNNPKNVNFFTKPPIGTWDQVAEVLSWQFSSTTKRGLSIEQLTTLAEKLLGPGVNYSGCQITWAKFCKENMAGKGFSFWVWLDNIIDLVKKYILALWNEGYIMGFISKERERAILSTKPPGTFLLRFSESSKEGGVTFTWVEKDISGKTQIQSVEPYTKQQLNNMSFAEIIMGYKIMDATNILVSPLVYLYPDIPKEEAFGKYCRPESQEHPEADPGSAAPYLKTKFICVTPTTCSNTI

| IC50 [1] [µM] | IC50 [2] [µM] | Compound |
| --- | --- | --- |
| 3 to 30 | 0.1 to 1 | CN=S(C)(=O)CC1(OC)CN(C(=O)[C@@H]2CC[C@@H]3CCC[C@H](NC(=O)c4cc5cc(C(F)(F)P(=O)(O)O)ccc5s4)C(=O)N32)C1 (stereo partly drawn) [Compound 827, ((2-(((3S,6S,9aS)-3-(3-((N,S-dimethyl-sulfonimidoyl)methyl)-3-methoxyazetidine-1-carbonyl)-5-oxooctahydro-1H-pyrrolo[1,2-a]azepin-6-yl)carbamoyl)benzo [b]thiophen-5-yl)difluoromethyl) phosphonic acid] |
| 0.3 to 3 | < 0.1 | O=C(N[C@H]1CCCC[C@H]2CC[C@@H](C(=O)NCc3ccn4ccnc4c3)N2C1=O)c1cc2cc(C(F)(F)P(=O)(O)O)ccc2s1 [Compound 828] |
| 0.3 to 3 | 1 to 10 | O=C(/C=C/c1ccc(C(F)(F)P(=O)(O)O)cc1)N[C@H]1CCCC[C@H]2CC[C@@H](C(=O)N3Cc4cnn(-c5ccccc5)c4C3)N2C1=O [Compound 829, (difluoro(4-((E)-3-oxo-3-(((3S,6S,10aS)-5-oxo-3-(1-phenyl-1,4,5,6-tetrahydropyrrolo[3,4-c]pyrazole-5-carbonyl)decahydropyrrolo[1,2-a]azocin-6-yl)amino)prop-1-en-1-yl)phenyl)methyl) phosphonic acid] |
| 0.3 to 3 | 1 to 10 | Cn1ccc([C@@H]2CN(C(=O)[C@@H]3CC[C@@H]4CCC[C@H](NC(=O)c5cc6cc([C@@H](F)P(=O)(O)O)ccc6s5)C(=O)N43)C3(CC3)C2)cc1=O [Compound 831, ((S)-fluoro(2-(((3S,6S,9aS)-3-((R)-6-(1-methyl-2-oxo-1,2-dihydropyridin-4-yl)-4-azaspiro[2.4]heptane-4-carbonyl)-5-oxooctahydro-1H-pyrrolo[1,2-a]azepin-6-yl)carbamoyl)benzo [b]thiophen-5-yl)methyl) phosphonic acid] |
| ≤ 0.3 | 0.1 to 1 | C[C@H]1C[C@H]2CC[C@@H](C(=O)N3C[C@@H](c4cccnc4)CC34CC4)N2C(=O)[C@@H](NC(=O)c2cc3cc([C@H](F)P(=O)(O)O)ccc3s2)C1 [Compound 834, ((R)-fluoro(2-(((3S,6S,8R,9aR)-8-methyl-5-oxo-3-((R)-6-(pyridin-3-yl)-4-azaspiro[2.4]heptane-4-carbonyl)octahydro-1H-pyrrolo[1,2-a]azepin-6-yl)carbamoyl)benzo [b]thiophen-5-yl)methyl) phosphonic acid] |
| ≤ 0.3 | 1 to 10 | C[C@H]1C[C@H]2CC[C@@H](C(=O)N3C[C@H](c4ccccc4)[C@@H](C#N)C34CC4)N2C(=O)[C@@H](NC(=O)c2cc3cc([C@H](F)P(=O)(O)O)ccc3s2)C1 [Compound 849, ((R)-(2-(((3S,6S,8R,9aR)-3-((6S,7R)-7-cyano-6-phenyl-4-azaspiro[2.4]heptane-4-carbonyl)-8-methyl-5-oxooctahydro-1H-pyrrolo[1,2-a]azepin-6-yl)carbamoyl)benzo [b]thiophen-5-yl)fluoromethyl) phosphonic acid] |
| 3 to 30 | 1 to 10 | O=C(N[C@H]1CCC[C@H]2CC[C@@H](C(=O)N3CC(c4cnccc4N4CCCC4=O)C3)N2C1=O)c1cc2cc(CP(=O)(O)O)ccc2s1 [Compound 850, ((2-(((3S,6S,9aS)-5-oxo-3-(3-(4-(2-oxopyrrolidin-1-yl)pyridin-3-yl)azetidine-1-carbonyl)octahydro-1H-pyrrolo[1,2-a]azepin-6-yl)carbamoyl)benzo [b]thiophen-5-yl)methyl) phosphonic acid] |

Further lines, the compound ahead of its results:

| Compound | IC50 [1] [µM] | IC50 [2] [µM] |
| --- | --- | --- |
| O=C(N[C@H]1CCC[C@H]2CC[C@@H](C(=O)N3CC(c4ncc(C5CC5)cn4)C3)N2C1=O)c1cc2cc(C(F)(F)P(=O)(O)O)ccc2s1 [Compound 817, ((2-(((3S,6S,9aS)-3-(3-(5-cyclopropyl-pyrimidin-2-yl)azetidine-1-carbonyl)-5-oxooctahydro-1H-pyrrolo[1,2-a]azepin-6-yl)carbamoyl)benzo [b]thiophen-5-yl)difluoromethyl) phosphonic acid] | 3 to 30 | 1 to 10 |
| Cc1ccnnc1C1CN(C(=O)[C@@H]2CC[C@@H]3CCC[C@H](NC(=O)c4cc5cc(C(F)(F)P(=O)(O)O)ccc5s4)C(=O)N32)C1 [Compound 818, (difluoro(2-(((3S,6S,9aS)-3-(3-(4-methylpyridazin-3-yl)azetidine-1-carbonyl)-5-oxooctahydro-1H-pyrrolo[1,2-a]azepin-6-yl)carbamoyl)benzo [b]thiophen-5-yl)methyl) phosphonic acid] | 3 to 30 | 0.1 to 1 |
| O=C(N[C@H]1CCC[C@H]2CC[C@@H](C(=O)N3CC(c4cnccc4C(F)F)C3)N2C1=O)c1cc2cc(C(F)(F)P(=O)(O)O)ccc2s1 [Compound 819, ((2-(((3S,6S,9aS)-3-(3-(4-(difluoromethyl)pyridin-3-yl)azetidine-1-carbonyl)-5-oxooctahydro-1H-pyrrolo[1,2-a]azepin-6-yl)carbamoyl)benzo [b]thiophen-5-yl)difluoromethyl) phosphonic acid] | 0.3 to 3 | 0.1 to 1 |
| Cc1ccc(C#N)nc1C1CN(C(=O)[C@@H]2CC[C@@H]3CCC[C@H](NC(=O)c4cc5cc(C(F)(F)P(=O)(O)O)ccc5s4)C(=O)N32)C1 [Compound 820, ((2-(((3S,6S,9aS)-3-(3-(6-cyano-3-methylpyridin-2-yl)azetidine-1-carbonyl)-5-oxooctahydro-1H-pyrrolo[1,2-a]azepin-6-yl)carbamoyl)benzo [b]thiophen-5-yl)difluoromethyl) phosphonic acid] | 3 to 30 | 0.1 to 1 |
| O=C(N[C@H]1CCC[C@H]2CC[C@@H](C(=O)N3CC(n4ncc5ccccc54)C3)N2C1=O)c1cc2cc(C(F)(F)P(=O)(O)O)ccc2s1 [Compound 821, ((2-(((3S,6S,9aS)-3-(3-(1H-indazol-1-yl)azetidine-1-carbonyl)-5-oxooctahydro-1H-pyrrolo[1,2-a]azepin-6-yl)carbamoyl)benzo [b]thiophen-5-yl)difluoromethyl) phosphonic acid] | 0.3 to 3 | 0.1 to 1 |
| COC1(CS(C)(=N)=O)CN(C(=O)[C@@H]2CC[C@@H]3CCC[C@H](NC(=O)c4cc5cc(C(F)(F)P(=O)(O)O)ccc5s4)C(=O)N32)C1 (stereo partly drawn) [Compound 822, (difluoro(2-(((3S,6S,9aS)-3-(3-methoxy-3-((S-methylsulfonimidoy 1)methyl)azetidine-1-carbonyl)-5-oxooctahydro-1H-pyrrolo[1,2-a]azepin-6-yl)carbamoyl)benzo [b]thiophen-5-yl)methyl) phosphonic acid] | 3 to 30 | 0.1 to 1 |
| CC(C)OC1(c2nncn2C)CN(C(=O)[C@@H]2CC[C@@H]3CCC[C@H](NC(=O)c4cc5cc(C(F)(F)P(=O)(O)O)ccc5s4)C(=O)N32)C1 [Compound 823, (difluoro(2-(((3S,6S,9aS)-3-(3-isopropoxy-3-(4-methyl-4H-1,2,4-triazol-3-yl)azetidine-1-carbonyl)-5-oxooctahydro-1H-pyrrolo[1,2-a]azepin-6-yl)carbamoyl)benzo [b]thiophen-5-yl)methyl) phosphonic acid] | 3 to 30 | 0.1 to 1 |
| N#Cc1ccnc(C2CN(C(=O)[C@@H]3CC[C@@H]4CCC[C@H](NC(=O)c5cc6cc(C(F)(F)P(=O)(O)O)ccc6s5)C(=O)N43)C2)n1 [Compound 824, ((2-(((3S,6S,9aS)-3-(3-(4-cyanopyrimidin-2-yl)azetidine-1-carbonyl)-5-oxooctahydro-1H-pyrrolo[1,2-a]azepin-6-yl)carbamoyl)benzo [b]thiophen-5-yl)difluoromethyl) phosphonic acid] | 0.3 to 3 | < 0.1 |
| O=C(N[C@H]1CCCC[C@H]2CC[C@@H](C(=O)NCc3ccc4nccnc4c3)N2C1=O)c1cc2cc(C(F)(F)P(=O)(O)O)ccc2s1 [Compound 825, (difluoro(2-(((3S,6S,10aS)-5-oxo-3-((quinoxalin-6-ylmethyl)carbamoyl)decahydropyrrolo [1,2-a]azocin-6-yl)carbamoyl)benzo [b]thiophen-5-yl)methyl) phosphonic acid] | 0.3 to 3 | 0.1 to 1 |
| COc1cccnc1C1CN(C(=O)[C@@H]2CC[C@@H]3CCC[C@H](NC(=O)c4cc5cc(C(F)(F)P(=O)(O)O)ccc5s4)C(=O)N32)C1 [Compound 826, (difluoro(2-(((3S,6S,9aS)-3-(3-(3-methoxypyridin-2-yl)azetidine-1-carbonyl)-5-oxooctahydro-1H-pyrrolo[1,2-a]azepin-6-yl)carbamoyl)benzo [b]thiophen-5-yl)methyl) phosphonic acid] | 0.3 to 3 | 0.1 to 1 |
